In patent US8304412B2, “Cyclically substituted 3,5-dicyano-2-thiopyridines and use thereof” (Bayer Intellectual Property GmbH, priority 2006, dated 2012):

Columns and labels:
Assay type in all cases: cell-based
[1] = target: T1, adenosine A2a receptor (Homo sapiens, UniProt P29274); experiment: Indirect determination of adenosine agonism by gene expression (luciferase), A2a cells; conditions: stably transfected CHO cells; 50% of maximum luciferase stimulation
T1 construct: expressed in transfected cells; host or cells: CHO (Chinese Hamster Ovary)
Description: (§1) B-1. Indirect Determination of the Adenosine Agonism by Way of Gene Expression
(§2) Cells of the CHO (Chinese Hamster Ovary) permanent cell line are transfected stably with the cDNA for the adenosine receptor subtypes A1, A2a and A2b. The adenosine A1 receptors are coupled to the adenylate cyclase by way of Gi proteins, while the adenosine A2a and A2b receptors are coupled by way of Gs proteins. In correspondence with this, the formation of cAMP in the cell is inhibited or stimulated, respectively. After that, expression of the luciferase is modulated by way of a cAMP-dependent promoter. The luciferase test is optimized, with the aim of high sensitivity and reproducibility, low variance and good suitability for implementation on a robot system, by varying several test parameters, such as cell density, duration of the growth phase and the test incubation, forskolin concentration and medium composition. The following test protocol is used for pharmacologically characterizing cells and for the robot-assisted substance screening:
(§3) The stock cultures are grown, at 37° C. and under 5% CO2, in DMEM/F12 medium containing 10% FCS (fetal calf serum) and in each case split 1:10 after 2-3 days. The test cultures are seeded in 384-well plates with 2000 cells per well and grown at 37° C. for approx. 48 hours. The medium is then replaced with a physiological sodium chloride solution (130 mM sodium chloride, 5 mM potassium chloride, 2 mM calcium chloride, 20 mM HEPES, 1 mM magnesium chloride hexahydrate, 5 mM sodium bicarbonate, pH 7.4). The substances to be tested, which are dissolved in DMSO, are pipetted into the test cultures (maximum final concentration of DMSO in the test mixture: 0.5%) in a dilution series of from 5×10^−11M to 3×10^−6M (final concentration). 10 minutes later, forskolin is added to the A1 cells and all the cultures are subsequently incubated at 37° C. for four hours. After that, 35 μl of a solution which is composed of 50% lysis reagent (30 mM disodium hydrogenphosphate, 10% glycerol, 3% TritonX100, 25 mM TrisHCl, 2 mM dithiotreitol (DTT), pH 7.8) and 50% luciferase substrate solution (2.5 mM ATP, 0.5 mM luciferin, 0.1 mM coenzyme A, 10 mM tricine, 1.35 mM magnesium sulfate, 15 mM DTT, pH 7.8) are added to the test cultures, which are shaken for approx. 1 minute and the luciferase activity is measured using a camera system. The EC50 values are determined, i.e., the concentrations at which 50% of the luciferase answer is inhibited in the case of the A1 cell, and, respectively, 50% of the maximum stimulation with the corresponding substance is achieved in the case of the A2b and A2a cells. […] Pharmacol., 357 (1998), 1-9).
(§4) Table 1 below lists the EC50 values of representative working examples for the receptor stimulation on adenosine A1, A2a and A2b receptor subtypes: […]

[2] = target: T2, adenosine A1 receptor (Homo sapiens, UniProt P30542); experiment: Indirect determination of adenosine agonism by gene expression (luciferase), A1 cells; conditions: 1 μM forskolin; stably transfected CHO cells; 50% inhibition of luciferase answer
T2 construct: expressed in transfected cells; host or cells: CHO (Chinese Hamster Ovary)
T2 sequence (P30542 1-326): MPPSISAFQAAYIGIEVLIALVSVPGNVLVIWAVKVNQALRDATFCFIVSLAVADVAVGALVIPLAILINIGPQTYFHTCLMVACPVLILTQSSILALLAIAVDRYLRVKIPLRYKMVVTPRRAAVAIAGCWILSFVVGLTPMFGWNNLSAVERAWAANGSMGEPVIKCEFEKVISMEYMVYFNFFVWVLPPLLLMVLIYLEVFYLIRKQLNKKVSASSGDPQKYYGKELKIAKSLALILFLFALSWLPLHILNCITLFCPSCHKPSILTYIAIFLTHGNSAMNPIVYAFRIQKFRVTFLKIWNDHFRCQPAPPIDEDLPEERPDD
Description: as §1, §2, §3, §4

[3] = target: T3, adenosine A2b receptor (Homo sapiens, UniProt P29275); experiment: Indirect determination of adenosine agonism by gene expression (luciferase), A2b cells; conditions: stably transfected CHO cells; 50% of maximum luciferase stimulation
T3 construct: expressed in transfected cells; host or cells: CHO (Chinese Hamster Ovary)
T3 sequence (P29275 1-332): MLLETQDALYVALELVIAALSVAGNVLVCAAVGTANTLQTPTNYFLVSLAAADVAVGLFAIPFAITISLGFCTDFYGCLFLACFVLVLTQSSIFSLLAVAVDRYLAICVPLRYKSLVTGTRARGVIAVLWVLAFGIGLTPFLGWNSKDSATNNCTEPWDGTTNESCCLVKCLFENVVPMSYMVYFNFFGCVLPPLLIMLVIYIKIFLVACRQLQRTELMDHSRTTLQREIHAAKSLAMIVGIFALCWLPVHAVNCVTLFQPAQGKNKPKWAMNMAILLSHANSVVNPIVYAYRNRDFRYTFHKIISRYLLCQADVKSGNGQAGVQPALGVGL
Description: as §1, §2, §3, §4

T1 sequence (P29274 whole entry): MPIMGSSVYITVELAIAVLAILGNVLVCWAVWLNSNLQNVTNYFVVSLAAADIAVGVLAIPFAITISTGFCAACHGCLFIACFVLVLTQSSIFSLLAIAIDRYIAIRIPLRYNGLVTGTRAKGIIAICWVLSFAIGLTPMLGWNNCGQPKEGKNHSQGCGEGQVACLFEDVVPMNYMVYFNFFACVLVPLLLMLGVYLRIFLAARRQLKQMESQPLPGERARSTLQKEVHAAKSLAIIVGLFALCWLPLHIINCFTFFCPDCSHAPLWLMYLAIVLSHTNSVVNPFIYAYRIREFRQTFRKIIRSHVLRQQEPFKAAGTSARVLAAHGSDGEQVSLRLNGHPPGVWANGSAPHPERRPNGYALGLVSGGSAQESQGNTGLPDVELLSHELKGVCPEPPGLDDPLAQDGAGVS

| Structure (SMILES) | EC50 [1] [nM] | EC50 [2] [nM] | EC50 [3] [nM] |
| --- | --- | --- | --- |
| Cc1sc(-c2ccc(Cl)cc2)nc1CSc1nc(N)c(C#N)c(C2CCCCC2)c1C#N [Example 76] | > 3000 | 106 | > 3000 |
| N#Cc1c(N)nc(SCc2cccc(C(N)=O)c2)c(C#N)c1C1CCCCC1 [Example 70] | 224 | 0.08 | 22 |
| N#Cc1c(N)nc(SCc2csc(-c3ccc(Cl)cc3)n2)c(C#N)c1C1CCN(C(=O)CO)CC1 [Example 9, 2-Amino-6-({[2-(4-chlorophenyl)-1,3-thiazol-4-yl]methyl}thio)-4-(1-glycoloylpiperidin-4-yl)-pyridine-3,5-dicarbonitrile] | > 3000 | 8.9 | 791 |
| N#Cc1c(N)nc(SCc2csc(-c3ccc(Cl)cc3)n2)c(C#N)c1[C@H]1CC[C@@H](O)CC1 [Example 4] | 1100 | 2.9 | 320 |
| N#Cc1c(N)nc(SCc2csc(-c3ccc(C(=O)O)cc3)n2)c(C#N)c1C1CCCCO1 (single isomer, unassigned) [Example 23] | 620 | 0.4 | 75 |
| N#Cc1c(N)nc(SCc2coc(-c3ccc(Cl)cc3)n2)c(C#N)c1C1CCCOC1 (stereo not drawn) [Example 58, 2-Amino-6-({[2-(4-chlorophenyl)-1,3-oxazol-4-yl]methyl}sulfanyl)-4-(tetrahydro-2H-pyran-3-yl)-pyridine-3,5-dicarbonitrile] | > 3000 | 11 | 950 |
| N#Cc1cnc(SCc2csc(-c3ccc(C(=O)O)cc3)n2)c(C#N)c1C1CCCOC1 (racemic) [Example 65, rac-4-[4-({[3,5-Dicyano-4-(tetrahydro-2H-pyran-3-yl)pyridin-2-yl]sulfanyl}methyl)-1,3-thiazol-2-yl]benzoic acid] | > 3000 | 9.5 | 860 |
| N#Cc1c(N)nc(SCc2cccc(C(=O)O)c2)c(C#N)c1C1CCCCO1 (stereo not drawn) [Example 51] | > 3000 | 6.8 | > 3000 |
| CN1CCN(CCCNc2nc(SCc3csc(-c4ccc(Cl)cc4)n3)c(C#N)c(C3CCCCC3)c2C#N)CC1 [Example 35] | 1470 | 68 | > 3000 |
| N#Cc1c(N)nc(SCc2csc(-c3ccc(C(=O)O)cc3)n2)c(C#N)c1C1CCCOC1 (single isomer, unassigned; (+)) [Example 62, (+)-4-[4-({[6-Amino-3,5-dicyano-4-(tetrahydro-2H-pyran-3-yl)pyridin-2-yl]sulfanyl}methyl)-1,3-thiazol-2-yl]benzoic acid] | > 3000 | 0.06 | > 3000 |
| N#Cc1c(N)nc(SCc2csc(-c3ccc(Cl)cc3)n2)c(C#N)c1C1CCCCC1 [Example 29, 2-Amino-6-({[2-(4-chlorophenyl)-1,3-thiazol-4-yl]methyl}thio)-4-cyclohexylpyridine-3,5-dicarbonitrile] | > 3000 | 3.8 | 345 |
| N#Cc1c(N)nc(SCc2coc(-c3ccc(F)c(Cl)c3)n2)c(C#N)c1[C@H]1CC[C@@H](O)CC1 [Example 78] | > 3000 | 17 | > 3000 |
| N#Cc1c(N)nc(SCc2csc(-c3ccc(Cl)cc3)n2)c(C#N)c1[C@H]1CC[C@H](O)CC1 [Example 3, 2-Amino-6-({[2-(4-chlorophenyl)-1,3-thiazol-4-yl]methyl}thio)-4-(trans-4-hydroxycyclohexyl)-pyridine-3,5-dicarbonitrile] | 1260 | 0.8 | 558 |
| N#Cc1c(N)nc(SCc2csc(-c3ccc(Cl)cc3)n2)c(C#N)c1C1CCCCO1 (single isomer, unassigned; ent-2) [Example 15, ent-2-Amino-6-({[2-(4-chlorophenyl)-1,3-thiazol-4-yl]methyl}thio)-4-(tetrahydro-2H-pyran-2-yl)-pyridine-3,5-dicarbonitrile] | 380 | 10 | 670 |
| Cc1nc(SCc2csc(-c3ccc(C(=O)O)cc3)n2)c(C#N)c(C2CCCCO2)c1C#N (single isomer, unassigned; (+)) [Example 56, (+)-4-[4-({[3,5-Dicyano-6-methyl-4-(tetrahydro-2H-pyran-2-yl)pyridin-2-yl]sulfanyl}methyl)-1,3-thiazol-2-yl]benzoic acid] | > 3000 | 0.8 | 51 |
